Several values for one entry are separate records, joined by “and”; a condition that tells them apart may be missing. Equal entries are not always repeated. Where two headings read alike, the source gives them in different places.
Legend:
[1] = system: L. amazonensis promastigotes; assay: Promastigote growth inhibition (MTT); format: cell-based; conditions: Leishmania amazonensis, 78 h
Procedure: Promastigote forms of the strain MHO were inoculated initially in the concentration of 5 × 10^5 parasites/mL in M199 medium (Life Technologie, Carlsbad, CA, USA), pH 7.4, supplemented with 10% of fetal bovine serum, (50 µg/mL) streptomycin, and (100 U) penicillin at 24 °C. Cells were grown until they reached the stationary phase. After this, 998 μL of the culture at 5.0 × 10^5 cells/mL was incubated with 2 μL of the inhibitors (50 to 0.0005 mM) dissolved in DMSO to obtain final concentrations of 100 to 0.001 μM. Amphotericin B was used as a control of the cell growth inhibition, in a concentration varying from 60 to 0.0006 μM dissolved in DMSO. […] After this inhibition period, the surviving cells were washed twice with HBSS (Gibco), centrifuged at 2000× g for 10 min, and supernatant was removed. To verify the parasite viability, over the pellet of cells about 1000 µL of M199 medium content was added, with 5 mg/mL of MTT (3-(4,5-dimethylthiazol-2-yl)-2, 5-diphenyltetrazolium bromide, a tetrazole) (Sigma-Aldrich, St. Louis, MO, USA). Surviving parasites were exposed to MTT during 12 h at 34 °C in a CO2 chamber. After this period, the cells were centrifuged for 10 min at 2000× g and the supernatant was removed. Formazan crystals that were formed in the cells were dissolved with DMSO, the absorbance was read using an Epoch 2 Microplate Spectrophotometer at 600 nm.

[2] = molecular target: T1, Leishmania amazonensis recombinant arginase (L-ARG) (Leishmania amazonensis, UniProt O96394); assay: Determination of Ki, Kis and mechanism of inhibition of L-ARG (Dixon and Cornish-Bowden plots); format: biochemical; conditions: for Mode of Inhibition: L-ARG; for Ki / Kis: L-arginine 25, 50, 100 mM, pH 9.5
Procedure: All reactions were performed in 50 mM CHES buffer, pH 9.5, containing variable concentrations of the substrate L-arginine (25, 50, and 100 mM) at pH 9.5. Inhibitors were tested at three different concentrations close to the IC50. All reactions were performed in triplicate in two independent experiments. Urea was quantified according to the Berthelot method using commercial reagents as previously described. The constant Ki was determined for competitive and mixed inhibitors, and Ki’ was determined uncompetitive and mixed using a Dixon and Cornish–Bowden plots. For non-competitive inhibitors, Ki and K’i values were the same, and y = 0 was determined to obtain that value.

[3] = system: Leishmania amazonensis recombinant arginase (L-ARG); assay: Arginase inhibition test, recombinant L-ARG (urea, Berthelot method); format: biochemical; design: Emax: dose or concentration left out as unconfirmed; conditions: for Selective Index: L-ARG over B-ARG (bovine IC50 vs L. amazonensis IC50)
Procedure: (§1) Recombinant L-ARG was expressed and purified as previously described. Briefly, Escherichia coli, containing arginase gene cloned in plasmid DNA, was grown in SOB (Super Optimal Broth) medium at 37 °C until it reached absorbance 0.6 at 600 nm. Then the recombinant L-ARG expression was induced with a final concentration of IPTG (isopropyl β-D-1-thiogalactopyranoside) 1 mM and MnSO4 10 mM for 3 h. The cells were harvested and lysed in 1 mL of buffer A (MOPS 100 mM, pH 7,2, NaCl 500 mM) containing PMSF (phenylmethanesulfonyl fluoride) 1 mM and 10% of CelLytic™ B. After lysis, the homogenate was centrifuged at 12,000× g for 10 min. Arginase in the supernatant was purified as previously described.
(§2) A stock solution (70 mM) was prepared in DMSO and stored at −20 °C for each compound just before the experiment. The inhibitory test was performed with 50 mM of L-arginine (pH 9.5), 50 mM CHES buffer (pH 9.5), and enzyme at 5 nM. The sample was incubated in a water bath at 37 °C for 15 min. Urea was quantified according to the Berthelot method, using commercial reagents. Briefly, the catalytic activity of the arginase reaction was stopped by transferring 2 μL of the reaction mixture into 150 μL of reagent I (20 mM phosphate buffer, pH 7, containing 60 mM Salicylate, 1 mM sodium nitroprusside, and >500 IU of urease). This mixture was incubated at 37 °C for 5 min. Next, 150 μL of reagent II (sodium hypochlorite 10 mM and NaOH 150 mM) was added, and the samples were incubated at 37 °C for 5 min. Measurement was taken at 600 nm using an Epoch 2 microplate reader (BioTek Instruments, Inc.). Two independent experiments were performed in triplicate until a coefficient of non-linear regression R^2 ≥ 0.95 was obtained. The sigmoidal model (log IC50) was used to determine IC50 and maximum effect (Emax) in GraphPad-Prism 6.01 software for Windows (San Diego, CA, USA).

[4] = molecular target: T1, Leishmania amazonensis recombinant arginase (L-ARG); assay: as above; format: biochemical; design: Emax: dose or concentration left out as unconfirmed
Procedure: as §1, §2

[5] = molecular target: human arginase (h-ARG); design: method as in PMID 27690022; conditions: cited from earlier work
[6] = molecular target: bovine arginase (B-ARG); design: method as in PMID 27690022; conditions: cited from earlier work
[7] = molecular target: T1, Leishmania amazonensis recombinant arginase (L-ARG); design: method as in PMID 30216691; conditions: Table 2, unit inferred; read-out: IC50 inhibition of arginase, L. amazonensis; cited from earlier work
[8] = 50 mM L-arginine, pH 9.5, 37 °C, 15 min, read-out: IC50 (half inhibitory activity), L-ARG
[9] = Table 2, unit inferred, read-out: IC50 inhibition of arginase, L. amazonensis
[10] = read-out: Emax (maximal inhibitory activity)
[11] = Table 2, unit inferred, read-out: IC50 inhibition of arginase, Bovine

| Compound | IC50 [1] [µM] | Mode of Inhibition [2] | Ki [2] [µM] | potency against L-ARG relative to human arginase ([3]; L-ARG IC50 vs human arginase IC50) [fold] | Selective Index [3] | IC50 [4, 8] | IC50 [4, 9] [µM] | Emax at 100 µM [4, 10] [%] | IC50 [5] | IC50 [6, 11] [µM] | mode of inhibition of bovine arginase [6] | IC50 [7] [nM] | IC50 ([6]; read-out: IC50, bovine arginase) [µM] | Kis [2] [µM] | Emax [4, 10] [%] |
| --- | --- | --- | --- | --- | --- | --- | --- | --- | --- | --- | --- | --- | --- | --- | --- |
| O=C(/C=C/c1ccc(O)c(O)c1)NCCc1ccccc1 [CAPA, caffeic acid phenethyl amide] | 82.6 | Competitive | 3.9 ± 1 | 9 | 1 | 6.9 ± 0.7 µM | 6.9 ± 0.7 | 79 ± 1 | 60.3 µM and 60 µM | 6.9 ± 1.3 | competitive inhibition | – | – | – | – |
| O=C(O)/C=C/c1ccc(O)c(O)c1 [Caffeic acid, reference compound] | – | – | – | – | 58 | – | – | – | – | 86.7 ± 8 | – | 1500 ± 300 | – | – | – |
| O=C(/C=C/c1ccc(O)c(O)c1)O[C@@H]1C[C@](O)(C(=O)O)C[C@@H](O)[C@H]1O [Chlorogenic acid, reference compound] | – | – | – | – | 1.3 | – | – | – | – | 10.6 ± 1.6 | – | – | ~10 | – | – |
| O=C(/C=C/c1ccc(O)c(O)c1)NCCc1ccc(O)cc1 [Compound 6] | – | Competitive | 4.4 ± 1.1 | – | 4 | 5.6 ± 0.4 µM | 5.6 ± 0.4 | 82 ± 2 | – | 22.1 ± 1.6 | – | – | – | – | – |
| O=C(/C=C/c1ccc(O)c(O)c1)NCCc1ccc(O)c(O)c1 [Compound 11] | – | Uncompetitive | – | – | 64 | 1.8 ± 0.1 µM | 1.8 ± 0.1 | 81 ± 2 | – | 115 ± 1.3 | – | – | – | 2.5 ± 0.2 | – |
| COc1cc(/C=C/C(=O)NCCc2ccc(O)c(O)c2)ccc1O [Compound 12] | – | Noncompetitive | 9.6 ± 0.7 | – | 31 | 6.5 ± 1.4 µM | 6.5 ± 1.4 | 75 ± 2 | – | 198.7 ± 1.4 | – | – | – | 9.6 ± 0.7 | – |
| O=C(/C=C/c1ccc(O)cc1)NCCc1ccc(O)c(O)c1 [Compound 13] | – | Competitive | 1.6 ± 0.2 | – | 68 | 2.5 ± 0.2 µM | 2.5 ± 0.2 | 82 ± 1 | – | 170.4 ± 1.7 | – | – | – | – | – |
| COc1cc(/C=C/C(=O)NCCc2ccc(O)c(O)c2)cc(OC)c1OC [Compound 14] | – | Competitive | 1.2 ± 0.3 | – | 81 | 2.4 ± 0.9 µM | 2.4 ± 0.9 | 81 ± 2 | – | 193.6 ± 1.4 | – | – | – | – | – |
| O=C(/C=C/c1ccccc1)NCCc1ccc(O)c(O)c1 [Compound 15] | – | Mixed | 1.4 ± 0.2 | – | 30 | – | 1.3 ± 0.1 | – | – | 39.3 ± 1.4 | – | – | – | 5 ± 1 | 80 ± 1 |
| O=C(NCCc1ccc(O)cc1)c1ccc(O)c(O)c1 [Compound 17] | – | Competitive | 11.4 ± 0.7 | – | 10 | 17.8 µM and 18 µM | 18 ± 3 | 68 ± 2 | – | 175.3 ± 1.5 | – | – | – | – | – |
| COC(=O)C(Cc1ccc(O)c(O)c1)NC(=O)/C=C/c1ccc(O)c(O)c1 (centres unmarked) [Compound 18] | – | Mixed | 3.9 ± 0.4 | – | 10 | 4 ± 1 µM | 4 ± 1 | 89 ± 3 | – | 41.9 ± 1.3 | – | – | – | 27 ± 8 | – |
| COC(=O)C(CS)NC(=O)/C=C/c1ccc(O)c(O)c1 (centres unmarked) [Compound 19] | – | Mixed | 6.6 ± 0.3 | – | 4 | 9 ± 1 µM | 9 ± 1 | 90 ± 3 | – | 37 ± 1.3 | – | – | – | 28 ± 4 | – |
